In patent US9238626B2 (priority 2012, dated 2016):
Where a name gives a salt, the structure may show the parent alone. Read-outs that look alike come from different tables or passages of the source.

Legend:
[1] = test system: human recombinant AChE-induced Aβ1-40 aggregation; assay: AChE-induced Aβ1-40 aggregation inhibition assay (thioflavin T); details: inhibitor 100 μM
Description: Aβ1-40, supplied as trifluoroacetate salt, was purchased from Bachem AG (Germany). Aβ1-40 (2 mg mL^−1) was dissolved in HFIP, lyophilized, and then resolubilized in DMSO to get a 2.3 mM Aβ1-40 solution. 1 mM Solutions of tested inhibitors were prepared by dissolution in MeOH.
Aliquots of 2 μL Aβ1-40 peptide were incubated for 24 h at room temperature in 0.215 M sodium phosphate buffer (pH 8.0) at a final concentration of 230 μM. […] The final volume of each vial was 20 μL. Each assay was run in duplicate. To quantify amyloid fibril formation, the thioflavin T fluorescence method was then applied (cf. H. Naiki et al., “Kinetic Analysis of Amyloid Fibril Polymerization in Vitro”, Lab. Invest. 1991, vol. 65, pp. 104-110). The fluorescence intensities due to β-sheet conformation were monitored for 300 s at λem=490 nm (λexc=446 nm). The percent inhibition of the AChE-induced aggregation due to the presence of the tested compound was calculated by the following expression: 100−(IFi/IFo×100) where IFi and IFe are the fluorescence intensities obtained for Aβ plus AChE in the presence and in the absence of inhibitor, respectively, minus the fluorescence intensities due to the respective blanks.

[2] = target: Electrophorus electricus (ee) AChE (Electrophorus electricus (Electric eel) (Gymnotus electricus), UniProt O42275); assay: AChE inhibition assay (Ellman), eeAChE; assay type: biochemical
Chain of Electrophorus electricus (ee) AChE (O42275 whole entry, looked up): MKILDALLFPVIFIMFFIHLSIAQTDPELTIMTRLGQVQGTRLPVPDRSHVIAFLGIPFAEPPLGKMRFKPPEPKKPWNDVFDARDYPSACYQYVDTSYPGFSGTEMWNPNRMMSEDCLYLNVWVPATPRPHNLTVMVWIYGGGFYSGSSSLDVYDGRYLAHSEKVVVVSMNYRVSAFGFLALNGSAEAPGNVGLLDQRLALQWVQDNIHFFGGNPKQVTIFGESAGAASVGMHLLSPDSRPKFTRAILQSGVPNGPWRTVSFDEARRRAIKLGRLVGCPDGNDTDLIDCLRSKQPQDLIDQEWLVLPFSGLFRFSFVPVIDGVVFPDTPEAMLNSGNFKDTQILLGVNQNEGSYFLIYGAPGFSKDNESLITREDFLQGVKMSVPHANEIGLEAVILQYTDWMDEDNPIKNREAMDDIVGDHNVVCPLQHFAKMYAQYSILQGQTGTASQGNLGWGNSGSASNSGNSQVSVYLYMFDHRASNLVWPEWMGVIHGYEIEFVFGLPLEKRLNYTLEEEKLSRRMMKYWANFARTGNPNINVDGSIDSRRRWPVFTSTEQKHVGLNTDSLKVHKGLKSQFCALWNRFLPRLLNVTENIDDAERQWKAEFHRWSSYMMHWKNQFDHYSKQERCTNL
Description: AChE inhibitory activity of compounds (Ia)-(Ie) and (−)-(Ib) and (+)-(Ib) was evaluated spectrophotometrically at 25° C. by the method of Ellman et al., using recombinant human AChE (hAChE) and Electrophorus electricus (ee) AChE and acetylthiocholine iodide as substrate (cf. G. L. Ellman et al., “New and Rapid Colorimetric Determination of Acetylcholinesterase Activity” Biochem. Pharmacol. 1961, vol. 7, pp. 88-95). For eeAChE inhibitory activity determination, the reaction took place in a final volume of 300 μL of 0.1 M phosphate-buffered solution pH 8.0, containing 0.03 unit/mL of ee AChE and 333 μM 5,5′-dithiobis(2-nitrobenzoic) acid (DTNB) solution used to produce the yellow anion of 5-thio-2-nitrobenzoic acid. Inhibition curves were performed in duplicates using at least 10 increasing concentrations of inhibitor and preincubating at 37° C. for 20 min. One duplicate sample without inhibitor was always present to yield 100% of AChE activity. Then, substrate acetylthiocholine (450 μM) was added and the reaction was developed at 37° C. for 5 min. The color production was measured at 414 nm.
(§1) Results are expressed as mean±S.E.M. of at least 4 experiments performed in duplicate. DTNB, acetylthiocholine, butyrylthiocholine, and enzymes were purchased from Sigma.

[3] = target: human serum BChE (Homo sapiens (Human), UniProt P06276); assay: BChE inhibition assay (Ellman); assay type: biochemical
Chain of human serum BChE (P06276 29-602): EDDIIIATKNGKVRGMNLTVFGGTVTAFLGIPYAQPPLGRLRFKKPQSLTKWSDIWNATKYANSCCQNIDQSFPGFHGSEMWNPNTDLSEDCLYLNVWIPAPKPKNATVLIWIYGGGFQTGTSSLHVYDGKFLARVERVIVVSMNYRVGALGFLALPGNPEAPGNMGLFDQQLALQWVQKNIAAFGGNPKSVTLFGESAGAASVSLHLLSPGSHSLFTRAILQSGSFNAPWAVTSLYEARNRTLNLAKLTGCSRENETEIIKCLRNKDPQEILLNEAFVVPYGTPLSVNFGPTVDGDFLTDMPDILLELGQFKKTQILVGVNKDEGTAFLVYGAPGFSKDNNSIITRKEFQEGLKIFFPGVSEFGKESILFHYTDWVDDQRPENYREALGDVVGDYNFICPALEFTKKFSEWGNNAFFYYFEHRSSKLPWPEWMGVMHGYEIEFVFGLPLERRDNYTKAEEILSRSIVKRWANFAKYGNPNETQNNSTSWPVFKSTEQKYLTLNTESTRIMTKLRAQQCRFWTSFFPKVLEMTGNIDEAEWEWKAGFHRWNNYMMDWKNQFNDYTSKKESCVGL
Description: BChE inhibitory activity determinations were carried out similarly by the method of Ellman et al., using 0.02 unit/mL of human serum BChE and 300 μM butyrylthiocholine, instead of AChE and acetylthiocholine, in a final volume of 300 μL.
as §1

[4] = target: Aβ1-42 (Homo sapiens, UniProt P05067); assay: Aβ1-42 self-aggregation inhibition assay (thioflavin T); assay type: biochemical; details: inhibitor 10 μM, [Aβ]/[I]=5/1
Description: As reported in a previously published protocol (cf. M. Bartolini et al., “Insight into the Kinetic of Amyloid Beta (1-42) Peptide Self-Aggregation: Elucidation of Inhibitors' Mechanism of Action. ChemBioChem 2007, vol. 8, pp. 2152-2161), HFIP pretreated Aβ1-42 samples (Bachem AG, Switzerland) were solubilized with a CH3CN/0.3 mM Na2CO3250 mM NaOH (48.4:48.4:3.2) mixture to obtain a 500 μM solution. Experiments were performed by incubating the peptide in 10 mM phosphate buffer (pH=8.0) containing 10 mM NaCl, at 30° C. for 24 h (final Aβ concentration 50 μM) with and without inhibitor (10 μM, Aβ/inhibitor=5/1). Blanks containing the tested inhibitors were also prepared and tested.

[5] = target: β-Secretase (BACE-1) (Homo sapiens (Human), UniProt P56817); assay: β-Secretase (BACE-1) inhibition assay; assay type: biochemical
Chain of β-Secretase (BACE-1) (P56817 46-501): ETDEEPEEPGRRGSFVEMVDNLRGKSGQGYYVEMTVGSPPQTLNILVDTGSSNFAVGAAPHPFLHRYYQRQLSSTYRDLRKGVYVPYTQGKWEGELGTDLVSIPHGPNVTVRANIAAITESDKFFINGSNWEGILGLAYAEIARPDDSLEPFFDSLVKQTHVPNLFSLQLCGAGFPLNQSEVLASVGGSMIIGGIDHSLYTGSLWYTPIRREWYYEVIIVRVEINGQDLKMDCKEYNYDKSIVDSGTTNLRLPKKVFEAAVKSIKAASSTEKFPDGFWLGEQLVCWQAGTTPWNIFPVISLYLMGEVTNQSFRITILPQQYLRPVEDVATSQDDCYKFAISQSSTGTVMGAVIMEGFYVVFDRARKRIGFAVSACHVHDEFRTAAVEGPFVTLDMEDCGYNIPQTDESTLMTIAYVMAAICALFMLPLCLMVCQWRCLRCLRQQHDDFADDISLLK
Description: β-Secretase (BACE-1, Sigma) inhibition studies were performed by employing a peptide mimicking APP sequence as substrate (methoxycoumarin-[…]dinitrophenyl, M-2420, Bachem). The following procedure was employed: 5 μL of test compound (or DMSO, if preparing a control well) were pre-incubated with 175 μL of the enzyme (in 20 mM sodium acetate containing CHAPS 0.1% w/v) for 1 h at room temperature. The substrate (3 μM, final concentration) was then added and left to react for 15 min. The fluorescence signal was read at λem=405 nm (λexc=320 nm). […] The fluorescence intensities with and without inhibitor were compared and the percent inhibition due to the presence of test compounds was calculated. The background signal was measured in control wells containing all the reagents, except BACE-1 and subtracted. […] Inhibition curves were obtained by plotting the % inhibition versus the logarithm of inhibitor concentration in the assay sample. The linear regression parameters were determined and the IC50 extrapolated (GraphPad Prism 4.0, GraphPad Software Inc.).

| Molecule | AChE-induced Aβ1-40 aggregation (%) [1] [%] | IC50 ([2]; read-out: IC50 eeAChE) [nM] | IC50 ([3]; read-out: IC50 hBChE) [nM] | IC50 [2] [nM] | Aβ1-42 self-induced aggregation (%) [4] [%] | IC50 ([5]; read-out: BACE-1 IC50) [nM] | IC50 [3] [nM] | IC50 [5] [nM] | BACE-1 % inhibition at 5 μM ([5]; 5 μM) |
| --- | --- | --- | --- | --- | --- | --- | --- | --- | --- |
| huprine Y [(±)-Huprine Y•HCl, reference compound] | 17.1 ± 4.5 | 0.08 ± 0.01 | – | – | – | – | – | – | – |
| O=C(O)c1cc(O)c2c(c1)C(=O)c1cccc(O)c1C2=O [Rhein, rhein, reference compound] | – | – | 17000 ± 4220 | 637 ± 87 | – | – | – | – | – |
| CC1=C[C@@H]2Cc3nc4cc(Cl)ccc4c(N)c3[C@H](C1)C2.Cl [(+)-Huprine Y•HCl, huprine Y, reference compound] | 9.1 ± 3.6 | 373 ± 50 | 170 ± 17 | – | 13.2 ± 1.9 | > 5000 | – | – | – |
| CC1=CC2Cc3nc4cc(Cl)ccc4c(NCc4ccc(CNC(=O)c5cc(O)c6c(c5)C(=O)c5cccc(O)c5C6=O)cc4)c3C(C1)C2 (racemic) [(±)-(Ie)•HCl, (±)-N-{4-{[(3-chloro-6,7,10,11-tetrahydro-9-methyl-7,11-methanocycloocta[b]quinolin-12-yl)amino]methyl}benzyl}-9,10-dihydro-4,5-dihydroxy-9,10-dioxoanthracene-2-carboxamide] | 35.2 ± 1.8 | 60 ± 7.5 | – | – | 32.4 ± 3.6 | – | 510 ± 20 | 2020 ± 400 | – |
| CC1=C[C@@H]2Cc3nc4cc(Cl)ccc4c(N)c3[C@H](C1)C2.Cl [(−)-Huprine Y•HCl, huprine Y, reference compound] | 24.7 ± 1.3 | 0.06 ± 0.01 | 222 ± 17 | – | 11.5 ± 5.2 | > 5000 | – | – | (14.0 ± 0.1% at |
| CC1=CC2Cc3nc4cc(Cl)ccc4c(NCCCCCCCCCCNC(=O)c4cc(O)c5c(c4)C(=O)c4cccc(O)c4C5=O)c3C(C1)C2 (racemic) [(±)-(Ic)•HCl, (±)-N-{10-[(3-chloro-6,7,10,11-tetrahydro-9-methyl-7,11-methanocycloocta[b]quinolin-12-yl)amino]decyl}-9,10-dihydro-4,5-dihydroxy-9,10-dioxoanthracene-2-carboxamide] | 29.2 ± 2.4 | – | – | 46.7 ± 2.4 | 40.9 ± 4.4 | – | 1100 ± 40 | 1190 ± 200 | – |
| CC1=CC2Cc3nc4cc(Cl)ccc4c(NCCCCCCCCCCCNC(=O)c4cc(O)c5c(c4)C(=O)c4cccc(O)c4C5=O)c3C(C1)C2 (racemic) [(±)-(Id)•HCl, (±)-N-{11-[(3-chloro-6,7,10,11-tetrahydro-9-methyl-7,11-methanocycloocta[b]quinolin-12-yl)amino]undecyl}-9,10-dihydro-4,5-dihydroxy-9,10-dioxoanthracene-2-carboxamide] | 38.2 ± 2.6 | 16.3 ± 2.3 | – | – | 35.3 ± 4.0 | – | 645 ± 67 | 1200 ± 100 | – |
| CC1=CC2Cc3nc4cc(Cl)ccc4c(NCCCCCCCCNC(=O)c4cc(O)c5c(c4)C(=O)c4cccc(O)c4C5=O)c3C(C1)C2 (racemic) [(±)-(Ia)•HCl, (±)-N-{8-[(3-chloro-6,7,10,11-tetrahydro-9-methyl-7,11-methanocycloocta[b]quinolin-12-yl)amino]octyl}-9,10-dihydro-4,5-dihydroxy-9,10-dioxoanthracene-2-carboxamide] | 44.7 ± 8.4 | – | – | 88.6 ± 6.7 | 33.1 ± 5.4 | – | 350 ± 17 | 980 ± 200 | – |
| CC1=CC2Cc3nc4cc(Cl)ccc4c(NCCCCCCCCCNC(=O)c4cc(O)c5c(c4)C(=O)c4cccc(O)c4C5=O)c3C(C1)C2 (racemic) [(±)-(Ib)•HCl, (±)-N-{9-[(3-chloro-6,7,10,11-tetrahydro-9-methyl-7,11-methanocycloocta[b]quinolin-12-yl)amino]nonyl}-9,10-dihydro-4,5-dihydroxy-9,10-dioxoanthracene-2-carboxamide] | 48.7 ± 8.4 | – | – | 32.6 ± 1.7 | 38.0 ± 4.6 | – | – | 120 ± 100 | – |
